Experimental data published in DBAASP.
In brackets after ≈: the same amount, converted by molar mass.

Assays:
Assay in all cases: ≥ marks a high value that may be exact or a test limit, other limits are often not marked, values filed in µg/mL are converted to µM
[1] = test system: Staphylococcus aureus ATCC 25923
[2] = test system: Candida albicans
[3] = test system: Salmonella enterica serovar Typhimurium
[4] = test system: Pseudomonas aeruginosa H103
[5] = test system: Escherichia coli UB1005
[6] = test system: Staphylococcus epidermidis
[7] = test system: Staphylococcus aureus ATCC 29213
[8] = test system: Staphylococcus aureus ATCC 33591
[9] = test system: Staphylococcus aureus ATCC 700699
[10] = test system: Escherichia coli ATCC 25922
[11] = test system: Klebsiella pneumoniae ATCC 700603
[12] = test system: Pseudomonas aeruginosa ATCC 27853
[13] = test system: Enterococcus faecalis ATCC 29212

SMILES	MIC [1]	MIC [2]	MIC [3]	MIC [4]	MIC [5]	MIC [6]	MIC [7]	MIC [8]	MIC [9]	MIC [10]	MIC [11]	MIC [12]	MIC [13]
CC[C@H](C)[C@H](NC(=O)[C@H](CCCN=C(N)N)NC(=O)[C@H](Cc1ccccc1)NC(=O)[C@H](CCCN=C(N)N)NC(=O)[C@@H](N)C(C)C)C(=O)N[C@@H](CCCN=C(N)N)C(=O)N[C@H](C(=O)N[C@@H](C)C(=O)N[C@H](C(=O)N[C@H](C(=O)N[C@@H](CCCN=C(N)N)C(=O)N[C@@H](C)C(N)=O)[C@@H](C)CC)C(C)C)C(C)C [VRFRIRVAVIRA]	8.24 µM (≈ 12 µg/mL)	4.12 µM (≈ 6 µg/mL)	4.12 µM (≈ 6 µg/mL)	4.12 µM (≈ 6 µg/mL)	1.1 µM (≈ 1.6 µg/mL)	1.1 µM (≈ 1.6 µg/mL)	–	–	–	–	–	–	–
CC[C@H](C)[C@H](NC(=O)[C@H](CC(=O)O)NC(=O)[C@@H](NC(=O)[C@@H](NC(=O)CN)C(C)C)C(C)C)C(=O)N[C@@H](CC(C)C)C(=O)N[C@@H](CCCCN)C(=O)NCC(=O)N[C@@H](C)C(=O)N[C@@H](C)C(=O)N[C@@H](CCCCN)C(=O)N[C@@H](CC(=O)O)C(=O)N[C@@H](C)C(=O)N[C@@H](C)C(=O)NCC(=O)N[C@@H](Cc1cnc[nH]1)C(=O)N[C@@H](CC(C)C)C(=O)N[C@@H](C)C(=O)N[C@@H](CO)C(=O)N[C@@H](CCCCN)C(=O)N[C@H](C(=O)N[C@@H](CCSC)C(=O)N[C@@H](CC(N)=O)C(=O)N[C@@H](CCCCN)C(=O)N[C@@H](CC(C)C)C(N)=O)C(C)C [GVVDILKGAAKDAAGHLASKVMNKL]	–	–	–	–	–	–	> 100 µM	≥ 100 µM	≥ 100 µM	> 100 µM	> 100 µM	> 100 µM	–
CC[C@H](C)[C@H](NC(=O)[C@H](CC(=O)O)NC(=O)[C@H](C)NC(=O)[C@H](C)NC(=O)[C@H](C)NC(=O)CNC(=O)[C@H](CCCCN)NC(=O)[C@H](CC(C)C)NC(=O)[C@@H](NC(=O)[C@H](CC(=O)O)NC(=O)[C@@H](NC(=O)[C@@H](NC(=O)CN)C(C)C)C(C)C)[C@@H](C)CC)C(=O)N[C@@H](C)C(=O)NCC(=O)N[C@@H](Cc1cnc[nH]1)C(=O)N[C@@H](CC(C)C)C(=O)N[C@@H](C)C(=O)N[C@@H](CO)C(=O)N[C@@H](CCCCN)C(=O)N[C@H](C(=O)N[C@@H](CCSC)C(=O)N[C@@H](CC(N)=O)C(=O)N[C@@H](CCCCN)C(=O)N[C@@H](CC(C)C)C(N)=O)C(C)C [GVVDILKGAAADIAGHLASKVMNKL]	–	–	–	–	–	–	> 100 µM	≥ 100 µM	≥ 100 µM	100 µM (≈ 249 µg/mL)	> 100 µM	> 100 µM	–
CC[C@H](C)[C@H](NC(=O)[C@H](CC(=O)O)NC(=O)[C@H](CCCCN)NC(=O)[C@H](C)NC(=O)[C@H](C)NC(=O)CNC(=O)[C@H](CCCCN)NC(=O)[C@H](CC(C)C)NC(=O)[C@@H](NC(=O)[C@H](CC(=O)O)NC(=O)[C@@H](NC(=O)[C@@H](NC(=O)CN)C(C)C)C(C)C)[C@@H](C)CC)C(=O)N[C@@H](C)C(=O)NCC(=O)N[C@@H](Cc1cnc[nH]1)C(=O)N[C@@H](CC(C)C)C(=O)N[C@@H](C)C(=O)N[C@@H](CO)C(=O)N[C@@H](CCCCN)C(=O)N[C@@H](C)C(=O)N[C@@H](CCSC)C(=O)N[C@@H](CC(N)=O)C(=O)N[C@@H](CCCCN)C(=O)N[C@@H](CC(C)C)C(N)=O [GVVDILKGAAKDIAGHLASKAMNKL]	–	–	–	–	–	–	> 100 µM	≥ 100 µM	≥ 100 µM	> 100 µM	> 100 µM	> 100 µM	–

Continued, values first:

MIC [1]	MIC [2]	MIC [3]	MIC [4]	MIC [5]	MIC [6]	MIC [7]	MIC [8]	MIC [9]	MIC [10]	MIC [11]	MIC [12]	MIC [13]	SMILES
0.7 µM (≈ 1.08 µg/mL)	5.4 µM (≈ 8.35 µg/mL)	2.7 µM (≈ 4.17 µg/mL)	5.4 µM (≈ 8.35 µg/mL)	2.7 µM (≈ 4.17 µg/mL)	0.7 µM (≈ 1.08 µg/mL)	–	–	–	–	–	–	5.4 µM (≈ 8.35 µg/mL)	NCCCC[C@H](NC(=O)[C@H](Cc1c[nH]c2ccccc12)NC(=O)[C@H](Cc1c[nH]c2ccccc12)NC(=O)[C@H](CCCN=C(N)N)NC(=O)[C@@H](N)CCCN=C(N)N)C(=O)N[C@@H](Cc1c[nH]c2ccccc12)C(=O)N[C@@H](Cc1c[nH]c2ccccc12)C(=O)N[C@@H](Cc1c[nH]c2ccccc12)C(=O)N[C@@H](CCCN=C(N)N)C(=O)O [RRWWKWWWR]
2.7 µM (≈ 3.36 µg/mL)	10.8 µM (≈ 13.4 µg/mL)	2.7 µM (≈ 3.36 µg/mL)	5.4 µM (≈ 6.72 µg/mL)	1.3 µM (≈ 1.62 µg/mL)	1.3 µM (≈ 1.62 µg/mL)	–	–	–	–	–	–	2.7 µM (≈ 3.36 µg/mL)	CC[C@H](C)[C@H](NC(=O)[C@@H](NC(=O)[C@@H](NC(=O)[C@H](CCCN=C(N)N)NC(=O)[C@@H](NC(=O)[C@H](CCCN=C(N)N)NC(=O)[C@H](Cc1c[nH]c2ccccc12)NC(=O)[C@H](CCCCN)NC(=O)[C@@H](N)Cc1c[nH]c2ccccc12)C(C)C)C(C)C)[C@@H](C)O)C(=O)O [WKWRVRVTI]
